From patent publication US20250092395A1, “A GLUN2D INHIBITOR FOR USE IN THE TREATMENT OR RELAPSE PREVENTION OF A DEPRESSIVE EPISODE” (priority 2022, published 2025)
“Also recorded” adds a separate entry of the source. Structures can show the parent of a compound that is named as a salt.

Tests used:
CDM mice = test: Nose-poke sucrose preference test in CDM mice; assay type: in vivo; conditions: CDM mice, POST1 and POST2 nights
Text: Behavioral Readout: After the treatment intervention, animals were either tested in an additional swim session (test day) to measure immobility time or tested in the InteliCage using the Nose-pokes sucrose preference test. For the assessment of the immobility time, mice were videotaped and two independent raters who were blinded to the experimental group analyzed the videos. Immobility time was defined as the cumulative time that the animals spend stationary with only enough movements of the tails or the forepaws to keep the head above the water surface. No distance is actively travelled except for passive floating, no directed movement of the front paws observed and the body of the animal mostly oriented parallel to the walls of the cylinder.
The IntelliCage system (TSE Systems) allows simultaneous analysis of spontaneous and exploratory behavior, activity pattern, and drinking preference of up to 16 group-housed mice implanted with radio-frequency identification (RFID) transponders. The unit consists of an open common space with 4 red shelters in the center and 4 recording corners. Mice have free access to food in the middle of the IntelliCage, water is available in the corners behind remote-controlled guillotine doors. Each corner is equipped with 2 drinking bottles and permits the visit of only one mouse at the same time. The scored parameters—the nosepokes toward the doors and the licks on the bottles—were monitored by a PC-based tracking software (IntelliCage Plus, TSE Systems). Initially, the mice were allowed to adapt to the IntelliCage for at least 7 days with water available ad libitum in all corners. Then for 3 days the animals were habituated to the sucrose taste: in each corner one of the bottles was filled with 1% sucrose solution and the other one with water. Both doors in the corner were open allowing free choice between the bottles. Next, a nosepoke adaptation period was carried out, where all doors were closed and the mice had to perform a nosepoke to open them. The opened door closes automatically after 5 s of drinking. In all tasks involving sucrose-filled bottles, the positions of the bottles were exchanged every 24 h. The Nosepoke SPT protocol was used (see Alboni et al.) for measurement of sucrose preference with gradually increasing effort (number of nosepokes) to reach the sucrose bottles for a short period of time (12 h). In this paradigm each door opens in response to a nosepoke and closes after 5 s licking. The number of nosepokes needed to open a door to a side with a sucrose containing bottle gradually increases (1, 2, 3, 4, 5, 6, 8, 10, 12, 16, 20, 24) after every 8 sucrose licking sessions. For each bottle the number of licks was recorded and the averaged sucrose preference was calculated as percentage of the total number of licks.

[1] = system: CA3-CA1 synapse in hippocampal brain slices of CDM mice; test: aLTP/aLTD inducibility in hippocampal brain slices of CDM mice after in vivo treatment; conditions: for stress-induced LTP blockade, reversal: NAB-14 in vivo
Experimental: Animals were preoxygenated in a 100% oxygen atmosphere for 5 min before cervical dislocation and decapitated according to national and institutional guidelines. Transverse 300 […] were cut from hippocampus with a Vibratome (VT1200, Leica, Japan). Slices were prepared in artificial cerebrospinal fluid (ACSF) containing (in mmol/I): 125 NaCl, 25 NaHCO3, 1.25 NaH2PO4, 2.5 KCL, 1 MgCl2, 27 Glucose, 2 CaCl2) bubbled with carbogen (95% O2, 5% CO2).
After 20 min resting time at 35° C., slices were kept at room temperature in aCSF and transferred into the recording chamber (volume approx. 2-3 ml) and continuously superfused with aCSF (rate approx. 5-10 ml/min-). Differential interference contrast video microscopy was used to identify location of CA1 pyramidal neurons (Zeiss Axioskop 2 FS plus, Zeiss Microscopy, Germany). Beside optical identification neurons were classified according to their characteristic firing frequency adaptation to long depolarising current pulses. Borosilicate glass tubes (2.0 mm outer diameter, 0.5 mm wall thickness; Hilgenberg, Germany) were used to pull patch pipettes. Pipettes with a resistance of 5-10 MΩ were used and series resistance of 10-50 MΩ was compensated by bridge balance. Patch pipettes were filled with an internal solution containing (in mM) for EPSP-measurements: 132K-gluconate, 20KCL, 2MgCl2, 10Hepes, 0.1EGTA, 4 Na2ATP, 0.3NaGTP. PH was adjusted to 7.2 with KOH. For current measurements: 135Csgluconate, 2CsCl, 5 QX314, 10 Hepes, 10EGTA, 2MgCl2, 2Na2ATP, 2TEACI, pH was adjusted to 7.2 with HCl. Osmolarity (280-300 mosmol/1) was controlled at the beginning of each experimental day with Osmomat (Gonotec GmbH, Germany).
A stimulation pipette (patch pipette with 1-3 MΩ resistance when filled with internal solution) was placed superficially in the stratum radiatum of the CA1 region in approximately […] distance to the pyramidal cell layer. Subthreshold excitatory postsynaptic potentials (EPSPs, 2 7 mV) were evoked by Schaffer collateral stimulation with voltage pulses of 10-80 V (frequency of 0.1 Hz, duration of 200 μs) using a stimulus isolator (Model 2100 Isolated pulse stimulator, Carlsborg, U.S.A.). Resting membrane potentials were between −75 and −65 mV and holding potential was −70 mV. 50 ms current test pulses (leading to 5-10 mV hyperpolarization) were applied to control input and series resistances after every 10th EPSP. EPSPs were combined with APs triggered by short (3 ms) current application of 900 pA via the patch-clamp electrode. EPC-10 amplifiers (HEKA, Germany) were used and signals were filtered at 5 kHz. Patchmaster NEXT software (Version 1.2, HEKA, Germany) was used for data acquisition and experiments were performed at room temperature.
aLTP: Five EPSPs and five postsynaptic APs were paired at 100 Hz with a 5 ms delay (AP after EPSP). Five of these bursts of synchronized EPSP→AP pairs were applied at theta frequency (5 Hz), followed by an interval of 10 sec and 4 more theta blocks, resulting in 125 EPSP/AP pairings.
aLTD: 360 postsynaptic APs were pared with 360 EPSPs with a delay of 20-30 ms between each AP/EPSP pairing at a frequency of 1 Hz. 1 Hz LTD: 600 EPSPs were elicited at a frequency of 1 Hz whilst CA1 pyramidal cell membrane potential was hold at −60 mV.
Long-term plasticity or molecular analyses were assessed as described above after the induction phase of the CDM and the specific treatment.
EPSP measurement: For baseline measurement, the mean amplitudes of 30 consecutive EPSPs before the induction protocol were calculated. 25 min after LTP induction the mean amplitude of 30 consecutive EPSPs was calculated and compared to the baseline of the same measurement. Changes of EPSP amplitudes were expressed as percentages of the baseline measurement and analysed for each experimental group applying a two-tailed Wilcoxon test. The differences between separate experimental groups were assessed using the Mann-Whitney test, not assuming normal distribution. […]

[2] = system: NMDAR currents in somatostatin positive Interneurons (SOM); test: NMDAR currents in voltage-clamp recordings, SOM interneurons; conditions: +40 mV, CNQX, bath application 10 μM
[3] = R,S-ketamine injected shortly before each swim session in the CDM

Compound | sucrose preference (CDM mice; NAB (5 μM as printed) injection) | stress-induced LTP blockade, reversal ([1]; CDM mice, high dose: 10 mg/kg, 10 μM, 10 mg/kg) | stress-induced LTP blockade, reversal ([1]; CDM mice, high dose: 10 mg/kg, 10 μM, listed as NAB, 10 mg/kg) | stress-induced LTP blockade, reversal ([1]; CDM mice, low dose: 5 mg/kg, 5 μM) | EPSP slope and decay changes found in CDM ([1]; CDM mice, previous NAB-14 treatment) | amplitude of NMDAR currents in SOM interneurons [2] | sucrose preference (CDM mice; single R,S-ketamine injection, hydrochloride) | stress-induced facilitation of LTD (aLTD, EPSP amplitude min 25 to 30) ([1]; CDM mice, R,S-ketamine injection i.p. after CDM induction, hydrochloride) | stress-induced blockade of LTP inducibility (aLTP, EPSP amplitude min 25 to 30) ([1]; CDM mice, single R,S-ketamine injection i.p. after CDM induction, hydrochloride) | stress-induced aLTD facilitation [1, 3] | stress-induced aLTP blockade [1, 3] | amplitude of NMDAR currents in SOM interneurons ([2]; hydrochloride) | amplitude of NMDAR currents in SOM interneurons ([2]; listed as Ketamine, hydrochloride)
CCN(CC)C(=O)Oc1ccc(C(=O)Nc2cccc3cc[nH]c23)cc1 [NAB-14] | fully reestablished | completely; also recorded: fully reversed | fully rehabilitated LTP inducibility | partially | effectively be reversed; also recorded: completely reversing slope increase and decay changes | significantly reduced; also recorded: reduce the amplitude of NMDAR currents in SOMs |  |  |  |  |  |  | 
CNC1(c2ccccc2Cl)CCCCC1=O (stereo not shown) [R,S-ketamine, R,S-Ketamine hydrochloride] |  |  |  |  |  |  | renormalized; also recorded: completely reestablished | fully restored; also recorded: reversed this inducibility | fully restored; also recorded: completely reestablishing stress-induced changes | weaker effect | prevented the stress-induced aLTP blockade | significantly stronger than in CA1 pyramidal cells; also recorded: significantly more pronounced in SOMs than in PCs | significantly more pronounced inhibitory effect
